Test results taken from patent US10508077B2 (FORMA Therapeutics, Inc., priority 2015, dated 2019).

Tests used:
[1] = biological target: T1, Recombinant N-terminal GST tag full-length human HDAC8 (Homo sapiens, UniProt Q9BY41); test: HDAC8 probe binding assay, time resolved fluorescence (TRF); conditions: fluorescein labeled pan-HDAC inhibitor probe, 16 hours incubation, compounds listed under IC50 range headings
T1 construct: Recombinant N-terminal GST tag full-length human HDAC8; purchased SignalChem H90-30G-1000; host or cells: Sf9 insect cells (baculovirus)
T1 sequence (Q9BY41 1-377): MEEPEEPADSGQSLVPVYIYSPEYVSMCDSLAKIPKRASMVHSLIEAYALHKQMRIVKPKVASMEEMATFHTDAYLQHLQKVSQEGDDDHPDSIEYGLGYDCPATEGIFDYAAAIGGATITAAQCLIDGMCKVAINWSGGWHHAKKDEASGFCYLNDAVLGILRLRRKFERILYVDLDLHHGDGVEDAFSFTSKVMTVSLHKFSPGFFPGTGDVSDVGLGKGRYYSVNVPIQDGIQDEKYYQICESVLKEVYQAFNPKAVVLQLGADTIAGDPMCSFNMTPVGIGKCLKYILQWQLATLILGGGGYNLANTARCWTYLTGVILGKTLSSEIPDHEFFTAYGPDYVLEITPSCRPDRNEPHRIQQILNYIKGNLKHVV
Experimental: The HDAC8 probe binding assay was performed using a time resolved fluorescence (TRF) assay format. Recombinant N-terminal GST tag full-length human HDAC8 was expressed and purified from baculovirus in Sf9 insect cells (SignalChem, #H90-30G-1000), Each assay was performed in 1536 black well microplates (Corning, #3936) in a final volume of 4 μL in assay buffer containing 50 mM HEPES (pH 7.5), 50 mM KCl, 50 mM NaCl, 0.5 mM GSH (L-Glutathione reduced, Sigma #G4251), 0.03% BGG (0.22 μM filtered, Sigma, #G7516-25G), and 0.01% Triton X-100 (Sigma, #T9284-10L). 20 nL of 10-point, 3-fold serial dilution in DMSO was pre-dispensed into respective wells of 1536 assay plates for a final test concentration range of 25 μM to 1.3 nM respectively. The final concentration in the assay of HDAC8 and probe (a fluorescein labeled pan-HDAC inhibitor) was 2.5 nM and 1.5 nM respectively. 2 μL of 2× probe and 2× anti-GST Terbium (Cisbio, #61GSTXLB) was added to assay plates followed by 2 μL of 2× HDAC8. Plates were incubated for 16 hours at room temperature before time resolved fluorescence was read on the Envision (Excitation at 340 nm, and Emission at 485 nm and 535 nm, Perkin Elmer).
Data from HDAC8 Assays were reported as percent inhibition (inh) compared with control wells based on the following equation: % inh=1−((FLU−AveLow)/(AveHigh−AveLow)) where FLU=measured time resolved fluorescence. AveLow=average time resolved fluorescence of no enzyme control (n=32). AveHigh=average time resolved fluorescence of DMSO control (n=32). IC50 values were determined by curve fitting of the standard 4 parameter logistic fitting algorithm included in the Activity Base software package: IDBS XE Designer Model205. Data is fitted using the Levenburg Marquardt algorithm.

[2] = biological target: T2, Full length human recombinant HDAC8 protein (Homo sapiens, UniProt Q9BY41); test: In vitro histone deacetylase assay: enzymatic HDAC8 assay, electrophoretic mobility shift; format: biochemical; conditions: substrate RHKK(Ac)-NH2, 1 nM enzyme, compounds listed under IC50 range headings
T2 construct: Full length human recombinant HDAC8 protein was expressed in baculoviral system; made in house
T2 sequence (Q9BY41 1-377): T1 sequence (Q9BY41 1-377)
Outline: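 Readout was microfluidic mobility-shift separation of deacetylated product from fluorescent RHKK(Ac)-NH2 substrate (2 µM), after reaction with 1 nM recombinant full-length human HDAC8 at 25 °C, pH 7.5, stopped with SDS. Twelve 3-fold-spaced concentrations tested; product/sum ratios normalized to controls and fitted with a 4-parameter model for IC50.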

Structure (SMILES) | IC50 [1] [nM] | IC50 [2] [nM]
O=C(/C=C/c1ccccc1N1CC[C@H](c2ccccc2)C1=O)NO (single isomer, unassigned) [Example I-327] | ≤ 1000 | < 1000
O=C(/C=C/c1ccccc1N1CC[C@@H](c2ccccc2)C1=O)NO (single isomer, unassigned) [Example I-328] | ≤ 1000 | < 1000
O=C(/C=C/c1ccccc1NCc1ccccc1)NO [Example I-40] | ≤ 1000 | < 1000
O=C(/C=C/c1ccccc1NC(=O)c1cccc(C(F)(F)F)c1)NO [Example I-41, (E)-N-(2-(3-(hydroxyamino)-3-oxoprop-1-en-1-yl)phenyl)-3-(trifluoromethyl)benazmide] | ≤ 1000 | < 1000
CC(=O)Nc1cccc(CNc2ccccc2/C=C/C(=O)NO)c1 [Example I-43, (E)-3-(2-((3-acetamidobenzyl)amino)phenyl)-N-hydroxyacrylamide] | 1000 to 100000 | < 1000
N#Cc1cccc(C(=O)Nc2ccccc2/C=C/C(=O)NO)c1 [Example I-44, (E)-3-cyano-N-(2-(3-(hydroxyamino)-3-oxoprop-1-en-1-yl)phenyl)benzamide] | ≤ 1000 | < 1000
N#Cc1cccc(CNc2ccccc2/C=C/C(=O)NO)c1 [Example I-45, (E)-3-(2-((3-cyanobenzyl)amino)phenyl)-N-hydroxyacrylamide] | 1000 to 100000 | < 1000
O=C(/C=C/c1ccccc1NCc1cccc(CCCO)c1)NO [Example I-48, (E)-N-hydroxy-3-(2-((3-(3-hydroxypropyl)benzyl)amino)phenyl)acrylamide] | 1000 to 100000 | < 1000
O=C(/C=C/c1ccccc1NC(=O)c1cccc(CCCO)c1)NO [Example I-49, (E)-N-(2-(3-(hydroxyamino)-3-oxoprop-1-en-1-yl)phenyl)-3-(3-hydroxypropyl)benzamide] | ≤ 1000 | < 1000
CN(C(=O)c1cccc(C(F)(F)F)c1)c1ccccc1/C=C/C(=O)NO [Example I-54, (E)-N-(2-(3-(hydroxyamino)-3-oxoprop-1-en-1-yl)phenyl)-N-methyl-3-(trifluoromethyl)benzamide] | ≤ 1000 | < 1000
O=C(/C=C/c1ccccc1NC(=O)c1ccc(C(F)(F)F)cc1)NO [Example I-61, (E)-N-(2-(3-(hydroxyamino)-3-oxoprop-1-en-1-yl)phenyl)-4-(trifluoromethyl)benzamide] | ≤ 1000 | < 1000
O=C(/C=C/c1ccccc1NC(=O)c1ccc2[nH]ccc2c1)NO [Example I-62, (E)-N-(2-(3-(hydroxyamino)-3-oxoprop-1-en-1-yl)phenyl)-1H-indole-5-carboxamide] | ≤ 1000 | < 1000
O=C(/C=C/c1ccccc1NC(=O)C1CCc2ccccc2C1)NO (stereo not drawn) [Example I-65, (E)-N-(2-(3-(hydroxyamino)-3-oxoprop-1-en-1-yl)phenyl)-1,2,3,4-tetrahydronaphthalene-2-carboxamide] | ≤ 1000 | < 1000
Cc1ccc(CC(=O)Nc2ccccc2/C=C/C(=O)NO)cc1 [Example I-66, (E)-N-hydroxy-3-(2-(2-(p-tolyl)acetamido)phenyl)acrylamide] | ≤ 1000 | < 1000
CC(C)CCC(=O)Nc1ccccc1/C=C/C(=O)NO [Example I-67, (E)-N-(2-(3-(hydroxyamino)-3-oxoprop-1-en-1-yl)phenyl)-4-methylpentanamide] | ≤ 1000 | < 1000
O=C(/C=C/c1ccccc1NC(=O)CC1CCCC1)NO [Example I-68, (E)-3-(2-(2-cyclopentylacetamido)phenyl)-N-hydroxyacrylamide] | ≤ 1000 | < 1000

Structure (SMILES) | IC50 [1] [nM] | IC50 [2] [nM]
CC(C)C(=O)Nc1ccccc1/C=C/C(=O)NO [Example I-69, (E)-N-hydroxy-3-(2-isobutyramidophenyl)acrylamide] | ≤ 1000 | < 1000
O=C(/C=C/c1ccccc1NC(=O)c1ccc(OC(F)F)cc1)NO [Example I-70, (E)-4-(difluoromethxoy)-N-(2-(3-(hydroxyamino)-3-oxoprop-1-en-1-yl)phenyl)benzamide] | ≤ 1000 | < 1000
O=C(/C=C/c1ccccc1NC(=O)c1ccccc1Oc1ccccc1)NO [Example I-71, (E)-N-(2-(3-(hydroxyamino)-3-oxoprop-1-enyl)phenyl)-2-phenoxybenzamide] | ≤ 1000 | < 1000
O=C(/C=C/c1ccccc1NC(=O)c1ccc(-n2cccn2)cc1)NO [Example I-72, (E)-N-(2-(3-(hydroxyamino)-3-oxoprop-1-en-1-yl)phenyl)-4-(1H-pyrazol-1-yl)benzamide] | ≤ 1000 | < 1000
O=C(/C=C/c1ccccc1NC(=O)[C@H]1C[C@H]1c1ccccc1)NO [Example I-73, (1S,2R)-N-(2-((E)-3-(hydroxyamino)-3-oxoprop-1-en-1-yl)phenyl)-2-phenylcyclopropane-1-carboxamide] | ≤ 1000 | < 1000
O=C(/C=C/c1ccccc1NC(=O)c1csc(-c2cccnc2)n1)NO [Example I-75, (E)-N-(2-(3-(hydroxyamino)-3-oxoprop-1-en-1-yl)phenyl)-2-(pyridin-3-yl)thiazole-4-carboxamide] | ≤ 1000 | < 1000
O=C(/C=C/c1ccccc1NC(=O)c1cnc(-c2cccnc2)s1)NO [Example I-76, (E)-N-(2-(3-(hydroxyamino)-3-oxoprop-1-en-1-yl)phenyl)-2-(pyridin-3-yl)thiazole-5-carboxamide] | ≤ 1000 | < 1000
O=C(/C=C/c1ccccc1NC(=O)c1cc2ccccc2[nH]1)NO [Example I-77] | ≤ 1000 | < 1000
CCn1c(C(=O)Nc2ccccc2/C=C/C(=O)NO)cc2ccccc21 [Example I-79, (E)-1-ethyl-N-(2-(3-(hydroxyamino)-3-oxoprop-1-en-1-yl)phenyl)-1H-indole-2-carboxamide] | ≤ 1000 | < 1000
O=C(/C=C/c1cc(Cl)ccc1NC(=O)c1cccnc1Oc1ccccc1)NO [Example I-570, N-{4-chloro-2-[(1E)-2-(hydroxycarbamoyl)eth-1-en-1-yl]phenyl}-2-phenoxypyridine-3-carboxamide] | ≤ 1000 | 
O=C(/C=C/c1cc(Cl)ccc1NC(=O)c1cccnc1Oc1ccc(Cl)cc1)NO [Example I-572, N-{4-chloro-2-[(1E)-2-(hydroxycarbamoyl)eth-1-en-1-yl]phenyl}-2-(4-chlorophenoxy)pyridine-3-carboxamide] | ≤ 1000 | 
COc1ccc(Oc2ccccc2C(=O)Nc2ccc(Cl)cc2/C=C/C(=O)NO)cc1 [Example I-573, N-{4-chloro-2-[(1E)-2-(hydroxycarbamoyl)eth-1-en-1-yl]phenyl}-2-(4-methoxyphenoxy)benzamide] | ≤ 1000 | 
O=C(/C=C/c1ccccc1N1CCC2(CCCN2C(=O)c2ccc(F)cc2)C1)NO (stereo not drawn) [Example I-575, (E)-3-(2-(1-(4-fluorobenzoyl)-1,7-diazaspiro[4.4]nonan-7-yl)phenyl)-N-hydroxyacrylamide] | ≤ 1000 | 
O=C(/C=C/c1ccccc1N1CCC2(CCCN2C(=O)CC(F)(F)F)C1)NO (stereo not drawn) [Example I-576, (E)-N-hydroxy-3-(2-(1-(3,3,3-trifluoropropanoyl)-1,7-diazaspiro[4.4]nonan-7-yl)phenyl)acrylamide] | ≤ 1000 | 
O=C(/C=C/c1ccccc1N1CCC2(CCCN2C(=O)Cc2ccccc2)C1)NO (stereo not drawn) [Example I-579, (E)-N-hydroxy-3-(2-(1-(2-phenylacetyl)-1,7-diazaspiro[4.4]nonan-7-yl)phenyl)acrylamide] | 1000 to 100000 | 
O=C(/C=C/c1ccccc1N1CCN(c2ccc(Cl)c(C(F)(F)F)c2)CC1=O)NO [Example I-582, (E)-3-(2-(4-(4-chloro-3-(trifluoromethyl)phenyl)-2-oxopiperazin-1-yl)phenyl)-N-hydroxyacrylamide] | 1000 to 100000 | 
